In patent US20260193179A9 (priority 2018, published 2026) one finds Ki and IC50 data, which are given here for seven compounds.

What is called pKi is the negative decadic logarithm of the Ki, by convention in mol/L. A low value points to a high Ki. As usually defined, the pIC50 is the negative decadic logarithm of the IC50, by convention in mol/L. Higher therefore signals a small IC50.

SMILES strings stand for the structures. pIC50, pKi: −log10 of the molar value. Where a name gives a salt, the structure may show the parent alone. Read-outs that look alike come from different tables or passages of the source.

What all share (format): biochemical
Assay [1] concerns the target MASP-2 (CCP1-CCP2-SP) (Homo sapiens, UniProt O00187). Put plainly: Enzymatic Assay for MASP-2 (fluorogenic substrate).
In assay [2] the target is mMASP-2 (Mus musculus, UniProt Q91WP0). Put plainly: Enzymatic assay for mMASP-2.
mMASP-2, sequence (Q91WP0 20-685): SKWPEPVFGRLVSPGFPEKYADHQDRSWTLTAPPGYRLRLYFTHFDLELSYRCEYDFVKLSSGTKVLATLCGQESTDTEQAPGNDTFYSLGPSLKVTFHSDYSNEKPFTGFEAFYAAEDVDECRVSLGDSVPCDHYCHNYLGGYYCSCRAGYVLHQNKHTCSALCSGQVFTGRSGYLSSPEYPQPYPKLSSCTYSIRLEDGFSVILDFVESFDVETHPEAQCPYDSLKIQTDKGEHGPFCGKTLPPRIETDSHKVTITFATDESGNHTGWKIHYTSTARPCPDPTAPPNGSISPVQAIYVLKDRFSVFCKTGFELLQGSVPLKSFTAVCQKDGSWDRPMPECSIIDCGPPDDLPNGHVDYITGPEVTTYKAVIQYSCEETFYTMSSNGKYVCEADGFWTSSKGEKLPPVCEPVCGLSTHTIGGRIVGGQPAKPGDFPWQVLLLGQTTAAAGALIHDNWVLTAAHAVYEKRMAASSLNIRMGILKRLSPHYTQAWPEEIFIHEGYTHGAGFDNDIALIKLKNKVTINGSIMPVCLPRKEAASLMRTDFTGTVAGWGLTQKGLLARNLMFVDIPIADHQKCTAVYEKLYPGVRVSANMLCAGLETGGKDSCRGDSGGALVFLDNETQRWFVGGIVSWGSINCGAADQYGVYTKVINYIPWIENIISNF
For assay [3], the target named is human α-thrombin (Homo sapiens, UniProt P00734). Put plainly: Enzymatic Assay for Thrombin (Boc-VPR-AMC substrate).
Assay [4] concerns Lectin Pathway. Put plainly: Lectin Pathway Activation Assay in Human Serum (mannan-coated ELISA, C3c detection). The following applies: 1% human serum. As for the experimental part:
Microtiter ELISA plate was coated with mannan from Saccharomyces cerevisiae (Sigma-Aldrich, M7504) for overnight at 4° C. in coating buffer [15 mM Na2CO3, 35 mM NaHCO3]. Plate was blocked with 1% bovine serum albumin (BSA) (Sigma-Aldrich, A3294) in Tris-buffered Saline (TBS) [10 mM Tris-HCl, 140 mM NaCl] for 2 hours at room temperature. […] 100 μL of this mixture were then added to the plate and plate was incubated at 37° C. for up to an hour with gentle shaking, 200 rpm. After that, plate was washed thrice in wash buffer [TBS containing 5 mM CaCl2) and 0.05% Tween-20] and 100 μL of rabbit anti human C3c (Dako, A0062) diluted 1:5000 in wash buffer were added and incubated at 37° C. for 30 minutes.
Background: An ELISA detects its analyte on a solid surface through an enzyme-linked reagent.

The mark [5] stands for this setting: human α-thrombin, Boc-VPR-AMC substrate.

MASP-2 (CCP1-CCP2-SP), sequence (O00187 445-686): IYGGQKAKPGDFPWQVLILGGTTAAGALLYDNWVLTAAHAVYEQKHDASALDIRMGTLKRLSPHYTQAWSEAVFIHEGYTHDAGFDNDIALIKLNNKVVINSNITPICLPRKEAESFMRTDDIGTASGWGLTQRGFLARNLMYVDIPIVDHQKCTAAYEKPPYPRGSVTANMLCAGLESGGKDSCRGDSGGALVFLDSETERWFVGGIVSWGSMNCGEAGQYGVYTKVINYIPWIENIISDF
MASP-2 (CCP1-CCP2-SP), sequence (O00187 298-444): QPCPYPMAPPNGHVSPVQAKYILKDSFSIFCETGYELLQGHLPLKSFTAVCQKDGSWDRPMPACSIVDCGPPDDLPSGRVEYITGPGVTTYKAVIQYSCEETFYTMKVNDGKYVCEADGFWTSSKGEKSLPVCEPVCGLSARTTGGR

Take `Cc1nc(N)ccc1CNC(=O)[C@H](CCC(N)=O)NC(=O)[C@H](N)CCc1ccccc1` [compound 1376, (S)—N^1-((6-Amino-2-methylpyridin-3-yl)methyl)-2-((R)-2-amino-4-phenylbutanamido)pentanediamide]: the negative-log Ki (pKi) in assay [1] is 5.60 to 6.30; in assay [2], below 4.60; in assay [3] (setting [5]) it was below 4.60.

As for `C[C@H](NC(=O)[C@H](N)CCc1ccccc1)C(=O)NCc1cccc(Cl)c1` [compound 1021], the negative-log Ki (pKi) in assay [2] and in assay [3] was below 4.60 in each case. The same compound showed a pIC50 in assay [4] below 4.30.

Turning to `C[C@H](NC(=O)[C@H](N)CCc1ccccc1)C(=O)NCc1cc(Cl)ccc1C#N` [compound 1313, Trifluoroacetate salt], the negative-log Ki (pKi) in assay [1] was 5.00 to 5.60; in assay [2], below 4.60; in assay [3] (setting [5]), 4.60 to 5.00.

Consider `C[C@H](OC(=O)[C@H](N)CCc1ccccc1)C(=O)NCc1ccc(C(=N)N)cc1` [compound 1315, (S)-1-((4-Carbamimidoylbenzyl)amino)-1-oxopropan-2-yl (R)-2-amino-4-phenylbutanoate Hydrochloride], for which the pKi was 5.60 to 6.30 in assay [1] and 5.00 to 5.60 in assay [3] (setting [5]).

On to `C[C@H](NC(=O)[C@@H](CCc1ccccc1)NCc1ccc(C(=O)N2CCOCC2)cc1)C(=O)NCc1ccc(C(=N)N)cc1` [compound 1153], for which the pKi in assay [1] and in assay [3] was above 6.30 each time.

`C[C@H](NC(=O)[C@H](N)CCc1ccccc1)C(=O)NCc1ccc2c(N)ncnc2c1` [compound 1060, (R)-2-Amino-N—((S)-1-(((4-aminoquinazolin-7-yl)methyl)amino)-1-oxopropan-2-yl)-4-phenylbutanamide Dihydrochloride] had a pKi in assay [1] above 5.60.

For the compound `Cc1nc(N)ccc1CNC(=O)C(C)NC(=O)[C@H]1C[C@H](c2cccc(-c3ccccc3)c2)CN1` (stereo in doubt) [compound 1359, (2R,4R)-4-([1,1′-Biphenyl]-3-yl)-N—((S)-1-(((6-amino-2-methylpyridin-3-yl)methyl)amino)-1-oxopropan-2-yl)pyrrolidine-2-carboxamide Di-trifluoroacetate salt], the pKi in assay [3] (setting [5]) is below 4.60.
